According to the supplement of paper PMC13380429:

How the values were obtained:
Conditions in all cases: 72 h
Caco-2 [1] = test: drug sensitivity score (DSS) for viability; higher = more toxic; extreme values may be limits of the assay
HepG2 [2] = test: as above
Calu-3 [3] = test: as above
Vero E6 [4] = test: as above
U2OS [5] = test: as above
Caco-2 [6] = test: relative viability EC50 (midpoint between 100% and the lowest measured viability); higher = less toxic
HepG2 [7] = test: as above
Calu-3 [8] = test: as above
Vero E6 [9] = test: as above
U2OS [10] = test: as above
Caco-2 [11] = test: cell viability relative to DMSO; higher = less toxic
HepG2 [12] = test: as above
Calu-3 [13] = test: as above
Vero E6 [14] = test: as above
U2OS [15] = test: as above

Compound	drug sensitivity score (Caco-2 [1])	drug sensitivity score (HepG2 [2])	drug sensitivity score (Calu-3 [3])	drug sensitivity score (Vero E6 [4])	drug sensitivity score (U2OS [5])	relative viability EC50 (Caco-2 [6])	relative viability EC50 (HepG2 [7])	relative viability EC50 (Calu-3 [8])	relative viability EC50 (Vero E6 [9])	relative viability EC50 (U2OS [10])	cell viability (Caco-2 [11]; 1 nM)	cell viability (Caco-2 [11]; 10 nM)	cell viability (Caco-2 [11]; 100 nM)	cell viability (Caco-2 [11]; 1000 nM)	cell viability (Caco-2 [11]; 10000 nM)	cell viability (HepG2 [12]; 1 nM)	cell viability (HepG2 [12]; 10 nM)	cell viability (HepG2 [12]; 100 nM)	cell viability (HepG2 [12]; 1000 nM)	cell viability (HepG2 [12]; 10000 nM)	cell viability (Calu-3 [13]; 1 nM)	cell viability (Calu-3 [13]; 10 nM)	cell viability (Calu-3 [13]; 100 nM)	cell viability (Calu-3 [13]; 1000 nM)	cell viability (Calu-3 [13]; 10000 nM)	cell viability (Vero E6 [14]; 1 nM)	cell viability (Vero E6 [14]; 10 nM)	cell viability (Vero E6 [14]; 100 nM)	cell viability (Vero E6 [14]; 1000 nM)	cell viability (Vero E6 [14]; 10000 nM)	cell viability (U2OS [15]; 1 nM)	cell viability (U2OS [15]; 10 nM)	cell viability (U2OS [15]; 100 nM)	cell viability (U2OS [15]; 1000 nM)	cell viability (U2OS [15]; 10000 nM)
CC1C(=O)OC2C(O)C34C5CC(C(C)(C)C)C36C(OC(=O)C6O)OC4(C(=O)O5)C12O (stereo not given) [ginkgolide-B]	0	0	0	0	0	> 10 µM	> 10 µM	> 10 µM	> 10 µM	> 10 µM	98%	93.4%	102%	93.8%	92.8%	110%	98.4%	99%	97.3%	97.5%	106%	90.8%	103%	98.6%	106%	100%	101%	97.1%	98.9%	100%	106%	102%	106%	96.2%	104%
CCn1ccnc1CC1COc2ccccc2O1 (stereo not given) [imiloxan]	0	0	0	0	0	> 10 µM	> 10 µM	> 10 µM	> 10 µM	> 10 µM	106%	87.6%	92.9%	104%	102%	90.6%	91.6%	94.5%	93.2%	116%	97.9%	98.5%	99.7%	107%	94.4%	92.5%	99.8%	95.9%	90.7%	102%	101%	98.4%	99.2%	101%	104%
C1=Cc2cccc(OCC3CNCCO3)c2C1 (stereo not given) [indeloxazine]	2.3	0	0	0	0	> 10 µM	> 10 µM	> 10 µM	> 10 µM	> 10 µM	101%	94.2%	86.4%	88.9%	90.3%	105%	111%	104%	93.1%	91.7%	105%	93.8%	104%	97.1%	97.8%	104%	106%	102%	102%	93.8%	95.2%	97.8%	101%	99.3%	96.8%
O=C(O)CCCN1C(=O)c2cccc3cccc(c23)C1=O [isodibut]	0	0	0	0	0	> 10 µM	> 10 µM	> 10 µM	> 10 µM	> 10 µM	105%	90.9%	93.6%	98.6%	95.4%	96.1%	95.8%	104%	105%	98.9%	99.1%	97.8%	96.9%	94.8%	114%	97%	97.9%	103%	101%	99.1%	99.3%	96.6%	97.7%	97.6%	95.7%
O=C(/C=C/c1ccc(O)cc1)c1ccc(O)cc1O [isoliquiritigenin]	0.2	0	0	0	0	> 10 µM	> 10 µM	> 10 µM	> 10 µM	> 10 µM	102%	92.1%	95.6%	92.2%	86.4%	102%	107%	91.9%	101%	96.5%	103%	93.7%	107%	107%	112%	99.4%	107%	93.6%	104%	113%	97.3%	99.7%	103%	98.2%	94.9%
